These are literature values, as cited in patent publication US20240342131A1, “Multivitamin for Cystic Fibrosis Patients Undergoing Cystic Fibrosis Transmembrance Conductance Regulator Gene Modulator Therapy” (priority 2021, published 2024).

The conditions of the data set: high doses.

As to `O=C1O[C@H]([C@@H](O)CO)C(O)=C1O` [vitamin C], the side effect result is “secretory diarrhea”.
